Assay results from patent US20070167329A1, “Plant growth regulation” (Bayer CropScience GmbH, priority 2003, published 2007).

Assays:
[1] = test system: wheat (Triticum aestivum, variety "TRISO"); test: Root growth assay, seed treatment, wheat; type: in vivo; set-up: key to Root Growth (Root Growth of "100" is set as the standard): relative root growth; 100 = standard (untreated control); details: for Root Growth (Root Growth of "100" is set as the standard): wet root weight 16 (±2) days post treatment; for effect as plant growth regulator in wheat: result in words, at various/different concentrations
From the text: (§1) Plant roots are a highly proliferative tissue that allows an easy accessible, cheap and short term screening method for plant growth regulators. The results obtained can easily be transferred to the overall effects on a plant of plant growth regulators identified by such a system. By using this root assay one is enabled to determine the effect of a seed treatment to root growth and/or germination and/or changes in habitat of germinated plants in order to identify the possible use as a yield enhancer. Two seeds of wheat (Triticum aestivum, variety “TRISO”) or 1 seed of maize (Zea mays, variety “LORENZO”) per hole in a plastic tray which contains an architecture of 8×13 holes were placed on compost soil covered with sand. These seeds were treated with 100 μl/hole, which creates an application volume of approx. 1200 l/ha, of a compound solution at active ingredient rates equivalent to 100, 10 and 1 g a.i./ha of each compound using an robotic application system (Lizzy Spray Robotics). Six replicates in a row of each compound and concentration were done. The outer rim of the above defined plastic tray was untreated to avoid false negative effects and the middle row (No. 7) was used as untreated control. The treated seeds were allowed to dry for approx. 4 hours and subsequently covered with sand and watered. The trays were stored in climate chambers with 14 hours lighting at a temperature of 24° C. (±2) at daytime and 16° C. (±2) at night and relative humidity (rH) of 60% and daily watered. Assessments were done 16 (±2) days post treatment by counting the germinated plants and assessing the phytotoxicity symptoms and percentage. In addition, the roots were washed out and the shoots were cut directly above the seed and the wet roots were placed on dry paper towels for approximately 30 minutes and weighted afterwards. This procedure provides a similar grade of moisture to the roots so that a comparison of the weights is possible.
(§2) The effects observed concerning Root Growth given in column 2 (Root Growth of “100” is set as the standard) are directed to concentrations that are equivalent to 100, 10, 1 g a.i./ha, each.

[2] = test system: maize (Zea mays, variety "LORENZO"); test: Root growth assay, seed treatment, maize; type: in vivo; details: for Root Growth (Root Growth of "100" is set as the standard): wet root weight 16 (±2) days post treatment; for effect as plant growth regulator in maize: result in words
From the text: as §1, §2

Row | SMILES | Root Growth (Root Growth of "100" is set as the standard) ([1]; 1 g a.i./ha) | Root Growth (Root Growth of "100" is set as the standard) ([1]; 10 g a.i./ha) | Root Growth (Root Growth of "100" is set as the standard) ([1]; 100 g a.i./ha) | effect as plant growth regulator in wheat [1] | Root Growth (Root Growth of "100" is set as the standard) ([2]; 1 g a.i./ha) | Root Growth (Root Growth of "100" is set as the standard) ([2]; 10 g a.i./ha) | Root Growth (Root Growth of "100" is set as the standard) ([2]; 100 g a.i./ha) | effect as plant growth regulator in maize [2] | melting point [°C]
1 | CSc1ccc(Nc2nc(N)c(C(=O)c3cccnc3)s2)cc1 [Compound 1.117] | 111 | 126 | 125 | – | – | – | – | – | –
2 | Nc1nc(Nc2ccccc2)sc1C(=O)c1cccnc1 [Compound 1.105] | 72 | 99 | 123 | superior effect | – | – | – | – | –
3 | Nc1nc(NCC2CCCCC2)sc1C(=O)C(Cc1ccccc1)NC(=O)OCc1ccccc1 (stereo not shown) [Compound 1.139] | 130 | 66 | 120 | – | – | – | – | – | –
4 | Nc1nc(Nc2ccccc2)sc1C(=O)c1cccs1 [Compound 1.79] | 88 | 88 | 73 | – | 108 | 116 | 105 | superior effect | –
5 | Nc1nc(Nc2ccc(OC(F)(F)F)cc2)sc1C(=O)c1cccnc1 [Compound 1.118] | 95 | 122 | 113 | – | – | – | – | – | –
6 | N#Cc1ccc(Nc2nc(N)c(C(=O)c3cccnc3)s2)cc1 [Compound 1.108] | 78 | 95 | 131 | superior effect | – | – | – | – | –
7 | Nc1nc(Nc2ccccc2)sc1C(=O)c1ccc(OC(F)F)cc1 [Compound 1.53] | 125 | 107 | 101 | superior effects | 91 | 85 | 108 | superior effects | –
8 | COc1ccc(Nc2nc(N)c(C(=O)c3cccnc3)s2)cc1 [Compound 1.106] | 145 | 99 | 90 | superior effect | – | – | – | – | –
9 | Nc1nc(Nc2cccnc2)sc1C(=O)c1ccc(OC(F)F)cc1 [Compound 1.60, [4-Amino-2-(pyridin-3-yl-amino)-thiazol-5-yl]-(4-difluoromethoxyphenyl)-methanone] | 98 | 57 | 54 | – | 191 | 105 | 109 | superior effect | 143
10 | Nc1nc(Nc2cccc(C(F)(F)F)c2)sc1C(=O)c1ccc(OC(F)F)cc1 [Compound 1.58] | 123 | 112 | 103 | superior effects | 91 | 107 | 105 | superior effects | –
